Assay results as given in article PMC12040169 (PLOS Biology, 2025).

Experiment: in vitro
Settings: human, hela cells, % viability

In order of rising viability at 28.5 h, 10 µM:
1. COc1ccc(CNC(=O)c2sc3ncnc(N(C)C4CCCCC4)c3c2C)cc1 [CBK294431]  78.9%
2. Cc1cccc(C2(Cn3cncc3-c3cnn(C)c3)CCOCC2)c1 [CBK281765]  79%
3. COc1cc(-c2nc3ccccn3c2/N=C/c2ccc(-c3ccc([N+](=O)[O-])cc3)o2)ccc1O [CBK262288]  79.8%
4. CCc1cccc2c(C=C3C(=O)N(CC(=O)O)C(=O)c4ccccc43)c[nH]c12 [CBK295153]  81.5%
5. CCCCC(=O)NC(c1ccccc1OC)c1cc(Cl)c2cccnc2c1O (stereo not shown) [CBK110947]  84.4%
6. CC(C)CCN1CCn2nc(CNc3cnccn3)cc2C1 [CBK307540]  85.8%
7. O=CN1CCc2c([nH]c3cc(F)ccc23)C12CCN(CCc1ccc3c(c1)OCO3)CC2 [CBK039614]  86.5%
8. Fc1cc(Br)c(CNCc2ccno2)c(N2CCCCC2)c1F [CBK304723]  86.8%
9. Oc1n[nH]c(CSCc2ccccc2Cl)n1 [CBK267427]  87.6%
10. CC(CNS(=O)(=O)c1ccc(N2CCCC2=O)cc1)Cn1cccn1 (stereo not shown) [CBK304656]  87.7%
11. CC(=O)NCCNc1ccc(C(=O)O)cc1[N+](=O)[O-] [CBK264184]  87.8%
12. N#CCCn1cc(C(=O)N2CCOCC2)c(-c2cccc(Cl)c2)n1 [CBK306208]  88.2%
13. C/C(=N\Nc1nc(-c2ccccc2)cs1)c1ccccc1 [CBK262104]  88.8%
14. Cc1ccc(C2(C)CC(C)(C)N(C(=O)CSc3nnc[nH]3)c3ccccc32)cc1 (stereo not shown) [CBK073918]  89.2%
15. O=C(Nc1ccc(Cl)c(Cl)c1)N1CCN(c2n[nH]c(=O)[nH]c2=O)CC1 [CBK297514]  89.4%
16. N#Cc1ccc(CNC(=O)N2CCCC(C(=O)O)C2)cc1 (stereo not shown) [CBK161352]  89.5%
17. CN(C)C(=O)N1CCN(C(=O)c2cn(Cc3cccc(S(C)(=O)=O)c3)nn2)CC1 [CBK160969T]  89.7%
18. CN(C)CCNCc1cccc(OCc2ccccc2)c1 [CBK278216C]  89.7%
19. COc1ccccc1C(=O)N1CCC(Cc2ccc(-c3cccc(C)c3)cc2)(C(N)=O)CC1 [CBK285792]  89.8%
20. O=c1[nH]ccn1CCNc1cc(-c2ccccc2Oc2ccccc2)ncn1 [CBK036966]  90.4%
21. O=C(/C=C/c1cccc([N+](=O)[O-])c1)NCCN1CCOCC1 [CBK262283]  90.5%
22. NC1=NC(=O)C2(COC(c3cccnc3)OC2)S1 (stereo not shown) [CBK019981]  91.3%
23. CCOC1(c2ccccc2)N=C2C(Cl)=CC(C(F)(F)F)=CN2N=C1c1ccccc1 (stereo not shown) [CBK020634]  91.4%
24. CCN(CC)C(=O)CN1C(=O)N2CCCN=C2c2ccc(Cl)cc21 [CBK284386]  91.7%
25. COc1ccc(-c2cncc(N3CCN(C)CC3)n2)cc1 [CBK065378]  91.8%
26. CC(NC(=O)c1ccc(=O)n(C)n1)c1ccc2c(c1)CCCC2 (stereo not shown) [CBK281416]  91.9%
27. N#Cc1ccc2nc([C@H]3CCN(C(=O)c4ccccc4)C3)[nH]c2c1 [CBK289379]  92.4%
28. Cc1cc(CN(C)C(=O)c2cccc(NC(=O)C3CCCCC3)c2)no1 [CBK305722]  92.6%
29. CCCC/C=C/c1cncc(N2CCN(Cc3ccccn3)CC2)n1 [CBK066096]  93.4%
30. O=c1oc2cc(Oc3ccc([N+](=O)[O-])cc3C(F)(F)F)c(Cl)cc2c2c1CCCC2 [CBK264914]  93.7%
31. O=C(CSc1nnc(-c2ccncc2)n1-c1ccccc1)c1ccc(Br)cc1 [CBK266758]  93.9%
32. COCCNc1cc(-c2cccc(F)c2C(N)=O)c2cc[nH]c2n1 [CBK307682]  94.2%
33. Cc1ccc(C)n1-c1ccc(O)c(C(=O)O)c1 [CBK116381]  94.2%
34. CC(=O)N(C)c1ccc(NS(=O)(=O)c2cc(C)c(Cl)cc2C)cc1 [CBK045298]  94.3%
35. Cn1c(-c2ccc(CN3CCCC3)cc2)cc2oc(-c3ccccc3SCCO)nc2c1=O [CBK200427T]  94.7%
36. COc1ccc(C(C)C)cc1-c1cncc(NCc2ccc3c(c2)OCO3)n1 [CBK065348]  95.2%
37. Cc1cccnc1NC(=O)c1ccc(N2CCN(C)CC2)c([N+](=O)[O-])c1 [CBK269366]  95.4%
38. CCn1c(COc2c(C)cccc2C)nnc1SCC(=O)N1c2ccccc2Sc2ccccc21 [CBK268103]  96.4%
39. CC(C)c1ccc(S(=O)(=O)NCc2csc3ccccc23)cc1 [CBK044662]  96.6%
40. CS(=O)(=O)N1CCN(c2ccc(NC(=O)COc3ccc4ccccc4c3)cc2)CC1 [CBK266450]  96.8%
41. Cc1c(C(=O)Nc2cccnc2)nnn1-c1cccc(C(F)(F)F)c1 [CBK107389]  97.1%
42. NCCCCCCNC(=O)c1c(O)c2ccccc2oc1=O [CBK261071]  97.9%
43. O=C(CN1CCC(c2ccccc2F)CC1)N1CCCC1 [CBK283578]  98.2%
44. COC(=O)c1c(NC(=S)NCCn2cc(Br)cn2)sc2c1CCC2 [CBK266905]  98.2%
45. C=C[C@H]1C[N@@]2CC[C@H]1C[C@@H]2CNS(=O)(=O)c1ccc(NC(C)=O)cc1 [CBK288749]  98.9%
46. O=C(O)Cc1nc(-c2ccccc2)c(-c2ccccc2)s1 [CBK159470]  99.4%
47. CCn1c(SCC(=O)Nc2ccc(Br)cc2F)nnc1-c1ccc(OC)cc1 [CBK266172]  100%
48. CSCCOc1cncc(N2CCCC2)n1 [CBK115761]  101%
49. CC(C)C(=O)N1CCC(n2nc(-c3cccs3)oc2=O)CC1 [CBK282422]  103%
50. Cc1ccc(S(=O)(=O)N2C[C@H](O)C[C@H]2C(=O)O)cc1 [CBK289276]  103%
51. O=C(CCSc1nc(-c2ccco2)cc(C(F)(F)F)n1)Nc1ccc2c(c1)OCO2 [CBK267627]  104%
52. O=C1CC(c2cccnc2)c2sc(N3CCOCC3)nc2N1 (stereo not shown) [CBK287927]  105%
53. Cc1ccc2nsnc2c1NC(=O)COc1ccccc1F [CBK269420]  105%
54. COc1ccc(OC(=O)COc2nc3c(C)cc(C)nc3[nH]2)cc1 [CBK269290]  106%
55. C=CCN1C(=O)C2(Nc3ccccc3C(=O)N2c2ccc(Cl)cc2)c2ccccc21 (stereo not shown) [CBK093474]  106%
56. CCCS(=O)(=O)Nc1nccnc1-c1ccc(Oc2ccccc2)cc1 [CBK050908]  106%
57. Nc1nc2n(n1)C(c1ccccc1)C1=C(CCCC1)N2 (stereo not shown) [CBK287949]  107%
58. COc1ccc(N(CC(=O)O)S(=O)(=O)c2ccccc2)c(OC)c1 [CBK262415]  108%
59. Nc1ccccc1-c1ccccc1NC(=O)C(=O)O [CBK266824]  110%
60. CN(C)c1ncnc2[nH]ncc12 [CBK016810]  115%
61. CCN(CC)C(=O)c1sc2ncccc2c1NS(=O)(=O)c1c(C)noc1C [CBK050617]  115%
62. Cc1c[n+]2ccsc2n1Cc1ccccc1C#N [CBK260951B]  116%

Same assay, conditions: human, hela cells, % viability, bulk resorufin, single well

In order of rising viability at 28.5 h, 10 µM:
1. COc1ccccc1CCNCc1ccccc1Br [CBK015149]  87%
2. O=C1NC(=O)C(=CNCCN2CCN(C(=O)c3ccccc3)CC2)C(=O)N1 [CBK265190]  90.5%
